Assay results taken from ChEMBL document CHEMBL3137667, “[Drug-induced liver injury; fourteenth updated edition of the bibliographic database of liver injuries and related drugs]” (Gastroenterol Clin Biol, 2004).

How the values were obtained:
[1] = Times to onset, minimal and maximal, observed in the indexed observations. [column 'DELAI' in source]; conditions: human
[2] = human
[3] = Comments (NB not yet translated). [column 'COMMENTAIRES' in source]; conditions: human
[4] = human; remark: listed apart in the source
[5] = human, serum
[6] = Highest frequency of moderate liver toxicity observed during clinical trials, expressed as a percentage. [column '% BIOL' in source]; conditions: human
[7] = human, serum; remark: listed apart in the source
[8] = human; remark: listed apart in the source
[9] = human; remark: listed apart in the source
[10] = human, serum, 4383 h
[11] = human; remark: listed apart in the source
[12] = human; remark: listed apart in the source
[13] = human; remark: listed apart in the source
[14] = human; remark: listed apart in the source
[15] = Highest frequency of acute liver toxicity observed during clinical trials, expressed as a percentage. [column '% AIGUE' in source]; conditions: human
[16] = human; remark: listed apart in the source
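Wherever Hepatotoxicity (association with vascular disease) is given: count of indexed literature references reporting vascular liver injury in humans, e.g. peliosis hepatitis, hepatic veno-occlusive disease or Budd-Chiari syndrome.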
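Wherever Hepatotoxicity (benign tumour) is given: value is a count of indexed literature references citing a benign tumour confirmed by histopathology.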
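Wherever Hepatotoxicity (choleostasis) is given: human cholestatic liver injury, shown by histopathology or by peak ALT or AST elevation over alkaline phosphatase ratio below 2, value counts indexed literature reports.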
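Wherever Hepatotoxicity (chronic liver disease) is given: chronic liver injury confirmed by histopathology or persistently raised serum aminotransferase activity beyond 6 months, value given as the count of indexed literature references.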
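Wherever Hepatotoxicity (cirrhosis) is given: value is a count of indexed literature references reporting cirrhosis confirmed by histopathology.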
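Wherever Hepatotoxicity (cytolytic) is given: human cytolytic liver injury, shown by histopathology or by a ratio above 5 of peak ALT or AST elevation to alkaline phosphatase elevation, value counts indexed references.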
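Wherever Hepatotoxicity (granulomatous hepatitis) is given: value is a count of indexed literature references reporting granulomatous liver disease confirmed by histopathology.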
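Wherever Hepatotoxicity (malignant tumour) is given: malignant tumour confirmed by histopathology, value gives the count of indexed literature references reporting it.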
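Wherever Hepatotoxicity (severe hepatitis) is given: human clinical data: severe hepatitis, meaning potentially life-threatening liver failure or clinically observed cases, the value counts how many indexed literature references report it.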
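Wherever Hepatotoxicity (steatosis) is given: steatosis confirmed by histopathology, value is the count of indexed references.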

Row | Molecule | Hepatotoxicity (time to onset) [1] | Hepatotoxicity (benign tumour) [2] | Hepatotoxicity (comment) [3] | Hepatotoxicity (choleostasis) [4] | Hepatotoxicity (moderate) [5] | Hepatotoxicity (moderate) [6] [%] | Hepatotoxicity (acute) [7] | Hepatotoxicity (granulomatous hepatitis) [8] | Hepatotoxicity (cytolytic) [9] | Hepatotoxicity (chronic liver disease) [10] | Hepatotoxicity (severe hepatitis) [11] | Hepatotoxicity (association with vascular disease) [12] | Hepatotoxicity (cirrhosis) [13] | Hepatotoxicity (steatosis) [14] | Hepatotoxicity (acute) [15] [%] | Hepatotoxicity (malignant tumour) [16] | further results
1 | CS(=O)(=O)OCCCCOS(C)(=O)=O [BUSULFAN] | 2 days - 6 years | 0 | HNR(I/THIOGUANINE) MVO | 3 | 11 | 100 | 6 | 0 | 3 | 0 | 4 | 42 | 1 | 0 | 6.7 | 0 | –
2 | C[C@@H]1C[C@H]2[C@@H]3CCC4=CC(=O)C=C[C@]4(C)[C@@]3(F)[C@@H](O)C[C@]2(C)[C@@]1(O)C(=O)CO [DEXAMETHASONE] | 8 days - 18 days | 0 | HEPATOMEGALIE | 0 | 2 | 24 | 0 | 0 | 0 | 0 | 0 | 0 | 0 | 0 | 0 | 0 | –
3 | CCc1ccc(CCOc2ccc(CC3SC(=O)NC3=O)cc2)nc1 (stereo not given) [PIOGLITAZONE] | 23 days - 7 months | 0 | CHOLESTASE_PROLONGEE PERICHOLANGIOLITE CHOLANGIOLITE | 3 | 3 | 0.4 | 5 | 0 | 3 | 0 | 1 | 0 | 0 | 0 | 0 | 0 | –
4 | CC/C(=C(/CC)c1ccc(O)cc1)c1ccc(O)cc1 [DIETHYLSTILBESTROL] | 4 days - 15 years | 0 | ANGIOSARCOME RC/TAMOXIFENE | 4 | 3 | 19 | 5 | – | 0 | 0 | 1 | 1 | 0 | 0 | 0 | 6 | Hepatotoxicity (granulomatous hepatitis) ([8]; Liver): 0
5 | ETANERCEPT | 4 weeks - 14 weeks | 0 | CHOLECYSTITE | 0 | 2 | 5 | 0 | 0 | 0 | 0 | 0 | 0 | 0 | 0 | 0 | 0 | –
6 | RITUXIMAB | 2 months - 7 months | 0 | REACTIVATION_HVB | 0 | 1 | 5.6 | 4 | 0 | 4 | 0 | 3 | 0 | 0 | 0 | 0 | 0 | –
7 | NCCCC(O)(P(=O)(O)O)P(=O)(O)O [ALENDRONIC ACID] | 2 months - 6 months | 0 | AC_ANTI-ML | – | 2 | – | 3 | – | – | 0 | – | 0 | 0 | 0 | – | 0 | Hepatotoxicity (choleostasis) ([4]; Liver): 0; Hepatotoxicity (moderate) ([6]; Liver): 1.6%; Hepatotoxicity (granulomatous hepatitis) ([8]; Liver): 0; Hepatotoxicity (cytolytic) ([9]; Liver): 3; Hepatotoxicity (severe hepatitis) ([11]; Liver): 1; Hepatotoxicity (acute) ([15]; Liver): 0%
8 | c1ccc(C2(c3ccccc3)CC2C2=NCCN2)cc1 (stereo not given) [CIFENLINE] | 47 days - 5.5 months | 0 | CHOLANGITE | 0 | 2 | 4.1 | 2 | 0 | 2 | 0 | 0 | 0 | 0 | 0 | 0 | 0 | –
9 | C[C@]1(O)CC[C@H]2[C@@H]3CCC4=CC(=O)CC[C@]4(C)[C@@]3(F)[C@@H](O)C[C@@]21C [FLUOXYMESTERONE] | 6 months - 13 years | 1 | ANGIOSARCOME PELIOSE | 2 | 2 | 7.1 | 2 | 0 | 0 | 0 | 0 | 6 | 0 | 0 | 0 | 3 | –
10 | CC(=O)[C@]1(O)Cc2c(O)c3c(c(O)c2[C@@H](O[C@H]2C[C@H](N)[C@H](O)[C@H](C)O2)C1)C(=O)c1ccccc1C3=O [IDARUBICIN] | 8 days - 6 months | 0 | HCF MVO REACTIVATION_HVB | 0 | 7 | 18.2 | 1 | 0 | 1 | 0 | 2 | 1 | 0 | 0 | 0 | 0 | –
